From patent US20120088662A1, “FUNGICIDAL MIXTURES” (BASF SE, priority 2009, published 2012)
Like-named read-outs stand apart in the source and are kept apart here.

Tests used:
[1] = test system: Puccinia recondita; experiment: Use Example G4: protective activity against brown rust of wheat (Puccrt P1); format: in vivo; conditions: alone, untreated control 79 % infection
Procedure: (§1) The active compounds were prepared separately or jointly as a stock solution with 25 mg of active compound which was made up to 10 ml using a mixture of acetone and/or DMSO and the emulsifier Wettol EM 31 (wetting agent having emulsifying and dispersing action based on ethoxylated alkylphenols) in a volume ratio of solvent:emulsifier of 99:1. The mixture was then made up with water to 100 ml. This stock solution was diluted with the solvent/emulsifier/water mixture described to give the active compound concentration stated below. Alternatively, the active compounds were used as a commercial finished formulation and diluted with water to the stated active compound concentration.
(§2) The visually determined values for the percentage of infected leaf area were initially converted into a mean value and then converted into efficancies in % of the untreated control. An efficacy of 0 means the same degree of infection as in the untreated control, an efficacy of 100 means 0% infection.
Leaves of potted wheat seedlings were sprayed to runoff point with an aqueous suspension having the active compound concentration stated below. The next day, the treated plants were inoculated with a spore suspension of brown rust of wheat (Puccinia recondita). The plants were then placed in a chamber of high atmospheric humidity (90 to 95%) at 20 to 24° C. for 24 hours. During this time, the spores germinated and the germ tubes penetrated into the leaf tissue. The next day, the test plants were returned to the greenhouse and cultivated at temperatures between 20 and 24° C. and 65 to 70% relative atmospheric humidity for a further 7 days. The extent of the rust fungus development on the leaves was then determined visually.

[2] = test system: Pyrenophora teres; experiment: Use Example M5: activity against Pyrenophora teres in the microtiter test (Pymte); format: cell-based; conditions: alone
[3] = test system: Septoria tritici; experiment: Use Example G5: protective activity against Septoria leaf blotch of wheat (Septtr P1); format: in vivo; conditions: alone, untreated control 83 % infection
Procedure: as §1, §2
(§3) Leaves of potted wheat seedlings were sprayed to runoff point with an aqueous suspension having the active compound concentration stated below. 24 hours after the spray coating had dried on, they were inoculated with an aqueous spore suspension of Septoria tritici. The test plants were then placed in a greenhouse at temperatures between 18 and 22° C. and a relative atmospheric humidity close to 100% for 4 days and then at temperatures between 18 and 22° C. and an atmospheric humidity of about 70%. After 21 days, the extent of the development of the disease was determined visually in % infection of the total leaf area.

[4] = test system: Pyricularia oryzae; format: cell-based; conditions: alone
[5] = test system: Septoria tritici; experiment: Use Example M4: activity against Septoria leaf spot pathogen in the microtiter test (Septtr); format: cell-based; conditions: alone
[6] = test system: Phytophthora infestans; format: in vivo; conditions: alone, untreated control 86 % infection
[7] = test system: Phakopsora pachyrhizi; experiment: Use Example G3: curative activity against soybean rust (Phakpa K4); format: in vivo; conditions: alone, untreated control 76 % infection
Procedure: as §1, §2
Leaves of potted soybean seedlings were inoculated with a spore suspension of soybean rust (Phakpsora pachyrhizi). The pots were then placed in a chamber of high atmospheric humidity (90 to 95%) and 20 to 24° C. for 24 hours. During this time, the spores germinated and the germ tubes penetrated into the leaf tissue. The infected plants were then cultivated further in a greenhouse at temperatures between 23 and 27° C. and 60 to 80% relative atmospheric humidity. After three days, the plants were sprayed to runoff point with the active compound solution described above at the active compound concentration stated below. After the spray coating had dried on, the test plants were cultivated in a greenhouse at temperatures between 23 and 27° C. and 60 to 80% relative atmospheric humidity for a further 10 days. The extent of the rust fungus development on the leaves was then determined visually in % infection.

[8] = test system: Phytophthora infestans; format: cell-based; conditions: single active compound
[9] = test system: Botrytis cinerea; experiment: Use Example M2: activity against gray mold pathogen in the microtiter test (Botrci); format: cell-based; conditions: single active compound
[10] = test system: Phakopsora pachyrhizi; experiment: Use Example G7: curative activity against soybean rust (Phakpa K3), % infection; format: in vivo; conditions: 150 ppm, curative spray two days after inoculation, further 10 days, untreated control 80% infected
Procedure: as §1
Leaves of potted soybean seedlings were inoculated with a spore suspension of soybean rust (Phakpsora pachyrhizi). The pots were then placed in a chamber of high atmospheric humidity (90 to 95%) and 20 to 24° C. for 24 hours. During this time, the spores germinated and the germ tubes penetrated into the leaf tissue. The infected plants were then cultivated further in a greenhouse at temperatures between 23 and 27° C. and 60 to 80% relative atmospheric humidity. […] The extent of the rust fungus development on the leaves was then determined visually in % infection.

[11] = test system: Septoria tritici; experiment: Use Example G6: protective activity against Septoria leaf blotch of wheat (Septtr P1), % infection; format: in vivo; conditions: 150 ppm, protective spray, after 21 days, untreated control 60% infected
Procedure: as §1, §3

[12] = test system: Septoria tritici; experiment: Comparison No. C1: activity against Septoria leaf blotch pathogen in the microtiter test (Septtr); conditions: relative growth, active compound-free control = 100%
Procedure: An aqueous malt-based spore suspension of Septoria tritici was then added. The plates were placed in a water vapor-saturated chamber at a temperature of 18° C. Using an absorption photometer, the MTPs were measured at 405 nm on day 7 after the innoculation.

[13] = test system: Botrytis cinerea; experiment: Use Example G1: gray mold on bell pepper leaves, protective application (Botrci P1); format: in vivo; conditions: 1 ppm, alone; untreated control 86 % infection
Procedure: as §1, §2
Bell pepper seedlings were after 2-3 leaves were well developed, sprayed to runoff point with an aqueous suspension having the active compound concentration stated below. The next day, the treated plants were inoculated with a spore suspension of Botrytis cinerea in a 2% biomalt solution. […] After 5 days, the extent of the fungal infection on the leaves could be determined visually in %.

## Fc1ccc([C@]2(Cn3cncn3)O[C@H]2c2ccccc2Cl)cc1 (racemic) [epoxiconazole]
[1]; 0.016 ppm
  Observed effect: 0%
[2]; 0.004 ppm
  Observed effect: 0%
[2]; 0.016 ppm
  Observed effect: 0%
[3]; 1 ppm
  Observed effect: 24%
[4]; ternary table, 0.016 ppm
  Observed effect: 0
[5]; 0.004 ppm
  Observed effect: 6
[5]; 0.016 ppm
  Observed effect: 22
[6]; 1 ppm
  Observed effect: 1%
[7]; 0.063 ppm
  Observed effect: 63%

## Fc1ccc([C@@]2(Cn3nc[nH]c3=S)O[C@H]2c2ccccc2Cl)cc1 (relative stereo) [I-1, trans-2-[3-(2-chlorophenyl)-2-(4-fluorophenyl)oxiranylmethyl]-2,4-dihydro-[1,2,4]triazole-3-thione]
[1]; 0.016 ppm
  Observed effect: 0%
[2]; 0.004 ppm
  Observed effect: 2%
[2]; 0.016 ppm
  Observed effect: 5%
[3]; 1 ppm
  Observed effect: 8%
[4]; 16 ppm
  Observed effect: 3
[6]; 1 ppm
  Observed effect: 0%
[7]; 0.063 ppm
  Observed effect: 17%

## CC(=O)Sc1ncnn1C[C@]1(c2ccc(F)cc2)O[C@H]1c1ccccc1Cl (relative stereo) [I-3, trans-S-{2-[3-(2-chlorophenyl)-2-(4-fluorophenyl)oxiranylmethyl]-2H-[1,2,4]triazol-3-yl}thioacetate]
[4]; 16 ppm
  Observed effect: 8
[4]; 63 ppm
  Observed effect: 62
[5]; 1 ppm
  Observed effect: 3
[8]; 63 ppm
  Observed effect: 43%
[9]; 16 ppm
  Observed effect: 15%

## N#CSc1ncnn1C[C@]1(c2ccc(F)cc2)O[C@H]1c1ccccc1Cl (relative stereo) [I-6, trans-1-[3-(2-chlorophenyl)-2-(4-fluorophenyl)oxiranylmethyl]-5-thiocyanato-1H-[1,2,4]triazole]
[10]
  infection (rust fungus development on the leaves, % infection): 0%
[11]
  infection (% infection of the total leaf area): 0%

## Fc1ccc([C@@]2(Cn3ncnc3S)O[C@H]2c2ccccc2F)cc1 (relative stereo) [I-8, trans-2-[2-(4-fluorophenyl)-3-(2-fluorophenyl)oxiranylmethyl]-2H-[1,2,4]triazole-3-thiole]
[9]; 63 ppm
  Observed effect: 24%

## [Na+].[S-]c1ncnn1C[C@]1(c2ccccc2Cl)O[C@H]1c1ccccc1Cl (relative stereo) [I-10, sodium 2-[trans-2,3-bis-(2-chlorophenyl)oxiranylmethyl]-2H-[1,2,4]triazole-3-thiolate]
[4]; 16 ppm
  Observed effect: 35
[8]; 16 ppm
  Observed effect: 30%

## S=c1[nH]cnn1C[C@]1(c2ccccc2)O[C@H]1c1ccccc1Cl (relative stereo) [I-12, 2-[trans-3-(2-chlorophenyl)-2-phenyloxiranylmethyl]-2,4-dihydro-[1,2,4]triazole-3-thione]
[4]; 16 ppm
  Observed effect: 7
[4]; 63 ppm
  Observed effect: 16

## Fc1ccccc1[C@@]1(Cn2nc[nH]c2=S)O[C@H]1c1ccccc1Cl (relative stereo) [I-14, 2-[trans-3-(2-chlorophenyl)-2-(2-fluorophenyl)oxiranylmethyl]-2,4-dihydro-[1,2,4]triazole-3-thione]
[4]; 16 ppm
  Observed effect: 18
[5]; 1 ppm
  Observed effect: 0
[8]; 16 ppm
  Observed effect: 26%

## CCSc1ncnn1C[C@]1(c2ccc(F)cc2)O[C@H]1c1ccccc1Cl (relative stereo) [I-18, trans-1-[3-(2-chlorophenyl)-2-(4-fluorophenyl)oxiranylmethyl]-5-ethylsulfanyl-1H-[1,2,4]triazole]
[12]
  Growth in % at 8 ppm for Septtr: 39%

## CSc1ncnn1CC1(c2ccc(F)cc2)OC1c1ccccc1Cl (stereo not shown) [Prior art (WO 96/38440)]
[12]
  Growth in % at 8 ppm for Septtr: 65%

## O=C(Nc1ccccc1-c1ccc(Cl)cc1)c1cccnc1Cl [boscalid]
[1]; 0.063 ppm
  Observed effect: 0%
[3]; 4 ppm
  Observed effect: 10%
[4]; 16 ppm
  Observed effect: 8
[4]; ternary table, 4 ppm
  Observed effect: 0
[5]; ternary table, 0.063 ppm
  Observed effect: 10
[8]; 4 ppm
  Observed effect: 4%
[8]; 16 ppm
  Observed effect: 20%

## COC(=O)Nc1nc2ccccc2[nH]1 [carbendazim]
[2]; 0.004 ppm
  Observed effect: 0%

## N#Cc1c(Cl)c(Cl)c(Cl)c(C#N)c1Cl [chlorothalonil]
[4]; ternary table, 0.063 ppm
  Observed effect: 4
[5]; 0.063 ppm
  Observed effect: 3
[5]; ternary table, 0.063 ppm
  Observed effect: 3

## CNC(=O)/C(=N/OC)c1ccccc1COc1cc(C)ccc1C [dimoxystrobin]
[2]; 0.004 ppm
  Observed effect: 4%

## CO/N=C(/C(=O)OC)c1ccccc1COc1ccccc1C [kresoxim-methyl]
[7]; 1 ppm
  Observed effect: 39%

## CNC(=O)/C(=N/OC)c1ccccc1CO/N=C(C)/C(=N/OC)C(/C)=N/OC [orysastrobin]
[4]; ternary table, 0.016 ppm
  Observed effect: 2
[5]; ternary table, 0.004 ppm
  Observed effect: 2
[9]; 0.016 ppm
  Observed effect: 1%
[9]; 1 ppm
  Observed effect: 2%

## COC(=O)N(OC)c1ccccc1COc1ccn(-c2ccc(Cl)cc2)n1 [pyraclostrobin]
[13]
  Observed effect: 1%
[8]; 16 ppm
  Observed effect: 16%

## Cc1cc(C)nc(Nc2ccccc2)n1 [pyrimethanil]
[4]; 4 ppm
  Observed effect: 47

## COC(=O)NC(=S)Nc1ccccc1NC(=S)NC(=O)OC [thiophanate-methyl]
[6]; 63 ppm
  Observed effect: 0%
[7]; 4 ppm
  Observed effect: 8%
